Measurements from patent US20080085915A1, “COMPOUNDS AND METHODS FOR THE TREATMENT OF GASTROINTESTINAL AND CENTRAL NERVOUS SYSTEM DISORDERS” (priority 2006, published 2008).

Assays:
5-HT4 receptor = target: T1, 5-HT4 receptor (Cavia porcellus, UniProt O70528); test: 5-HT4 Receptor Binding - Guinea Pig Striatum; details: radioligand [3H]GR113808 (0.70 nM)
T1 construct: from tissue; host or cells: guinea pig striatum
Text: The 5-HT4 receptor is known to be the major receptor subtype involved in the prokinetic activity of cisapride in the gut.

[1] = target: T2, human IKr (hERG K+ channels) (Homo sapiens, UniProt Q12809); test: Inhibition of IKr activity, whole cell patch-clamp in HEK-293 cells expressing hERG K+ channels; format: cell-based; details: data normalized to % control tail IKr
T2 construct: expressed in transfected cells; host or cells: HEK-293
Experimental: The rapidly activating delayed rectifier potassium (K+) current in humans (human IKr) is a K+ channel that is encoded by the human-ether-a-go-go-related gene (hERG). Cisapride is known to produce QT interval prolongations via a blockade of IKr, and it was therefore of interest to determine whether compounds of the invention have important inhibitory effects on human IKr. The test system was mammalian HEK-293 cells expressing the hERG K+ channels, in which the potassium current was measured by whole cell patch-clamp technique.

[2] = in vivo; cited from earlier work
[3] = between July 1993 and December 1999; cited from earlier work

T2 sequence (Q12809 whole entry): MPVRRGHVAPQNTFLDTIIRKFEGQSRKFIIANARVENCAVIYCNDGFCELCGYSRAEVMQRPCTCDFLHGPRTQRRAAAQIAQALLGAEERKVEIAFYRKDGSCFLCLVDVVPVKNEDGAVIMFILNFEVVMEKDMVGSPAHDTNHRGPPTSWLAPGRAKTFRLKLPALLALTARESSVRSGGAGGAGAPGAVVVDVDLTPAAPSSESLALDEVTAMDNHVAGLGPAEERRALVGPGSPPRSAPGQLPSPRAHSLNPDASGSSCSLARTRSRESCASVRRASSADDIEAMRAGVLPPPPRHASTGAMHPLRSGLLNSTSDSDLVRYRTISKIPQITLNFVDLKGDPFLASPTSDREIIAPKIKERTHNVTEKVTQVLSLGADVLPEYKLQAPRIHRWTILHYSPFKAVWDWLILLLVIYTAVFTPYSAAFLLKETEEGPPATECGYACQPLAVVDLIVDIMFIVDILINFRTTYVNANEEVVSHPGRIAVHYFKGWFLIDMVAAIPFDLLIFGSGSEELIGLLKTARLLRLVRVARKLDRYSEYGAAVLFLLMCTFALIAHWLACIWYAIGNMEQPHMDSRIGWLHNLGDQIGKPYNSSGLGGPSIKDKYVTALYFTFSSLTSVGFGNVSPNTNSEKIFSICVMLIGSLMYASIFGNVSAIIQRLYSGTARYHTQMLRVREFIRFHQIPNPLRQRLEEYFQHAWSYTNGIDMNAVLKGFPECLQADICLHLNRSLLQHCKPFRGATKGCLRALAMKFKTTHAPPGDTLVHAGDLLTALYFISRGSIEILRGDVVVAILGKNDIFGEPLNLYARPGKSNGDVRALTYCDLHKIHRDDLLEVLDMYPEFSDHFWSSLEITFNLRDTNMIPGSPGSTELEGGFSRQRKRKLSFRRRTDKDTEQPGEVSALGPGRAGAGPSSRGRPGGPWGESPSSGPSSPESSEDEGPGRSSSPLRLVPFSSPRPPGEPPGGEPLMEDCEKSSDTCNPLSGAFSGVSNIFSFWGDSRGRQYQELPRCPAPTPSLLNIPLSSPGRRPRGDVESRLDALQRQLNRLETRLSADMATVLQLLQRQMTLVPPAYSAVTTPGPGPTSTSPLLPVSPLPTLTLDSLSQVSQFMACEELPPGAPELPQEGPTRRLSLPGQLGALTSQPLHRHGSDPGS
T1 sequence (O70528 whole entry): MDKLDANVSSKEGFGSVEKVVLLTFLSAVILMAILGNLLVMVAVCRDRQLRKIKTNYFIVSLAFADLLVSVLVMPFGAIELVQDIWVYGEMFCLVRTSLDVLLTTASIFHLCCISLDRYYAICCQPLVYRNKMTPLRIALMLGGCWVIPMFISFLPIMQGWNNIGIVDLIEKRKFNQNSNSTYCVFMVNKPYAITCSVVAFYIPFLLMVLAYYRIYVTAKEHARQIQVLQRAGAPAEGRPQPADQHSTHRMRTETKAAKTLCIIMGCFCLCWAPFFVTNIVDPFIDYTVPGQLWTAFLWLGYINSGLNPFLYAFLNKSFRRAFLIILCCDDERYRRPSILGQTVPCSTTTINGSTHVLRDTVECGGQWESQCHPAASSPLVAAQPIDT

| Ki (5-HT4 receptor) | Structure (SMILES) | IC50 [1] | further results |
| --- | --- | --- | --- |
| < 50 nM | COc1cc(N)c(Cl)cc1C(=O)N[C@@H]1CCN(CCN(C)Cc2ccc(C(=O)OCCN3CCCC3)cc2)C[C@@H]1OC [Compound 10, 2-(pyrrolidin-1-yl)ethyl 4-(((2-((3S,4R)-4-(4-amino-5-chloro-2-methoxybenzamido)-3-methoxypiperidin-1-yl)ethyl)(methyl)amino)methyl)benzoate] | > 25000 nM | – |
| < 50 nM | COc1cc(N)c(Cl)cc1C(=O)N[C@@H]1CCN(CCN(C)Cc2ccc(C(=O)OC3CCN(C)CC3)cc2)C[C@@H]1OC [Compound 11, 1-methylpiperidin-4-yl 4-(((2-((3S,4R)-4-(4-amino-5-chloro-2-methoxybenzamido)-3-methoxypiperidin-1-yl)ethyl)(methyl)amino)methyl)benzoate] | – | – |
| 50 to 500 nM | COc1cc(N)c(Cl)cc1C(=O)N[C@@H]1CCN(CCN(C)Cc2ccc(C(=O)OCCN3CCOCC3)cc2)C[C@@H]1OC [Compound 12, 2-morpholinoethyl 4-(((2-((3S,4R)-4-(4-amino-5-chloro-2-methoxybenzamido)-3-methoxypiperidin-1-yl)ethyl)(methyl)amino)methyl)benzoate] | – | – |
| > 500 nM | COc1cc(N)c(Cl)cc1C(=O)N[C@@H]1CCN(CCNCc2ccc(C(=O)O)cc2)C[C@@H]1OC [Compound 23, 4-((2-((3S,4R)-4-(4-amino-5-chloro-2-methoxybenzamido)-3-methoxypiperidin-1-yl)ethylamino)methyl)benzoic acid] | – | – |
| 50 to 500 nM | COc1cc(N)c(Cl)cc1C(=O)N[C@@H]1CCN(CCNCc2ccc(C(=O)OCCCO)cc2)C[C@@H]1OC [Compound 24, 3-hydroxypropyl 4-((2-((3S,4R)-4-(4-amino-5-chloro-2-methoxybenzamido)-3-methoxypiperidin-1-yl)ethylamino)methyl)benzoate] | – | – |
| < 50 nM | COc1cc(N)c(Cl)cc1C(=O)N[C@@H]1CCN(CCNCc2ccc(C(=O)OC3CCNCC3)cc2)C[C@@H]1OC [Compound 25, piperidin-4-yl 4-((2-((3S,4R)-4-(4-amino-5-chloro-2-methoxybenzamido)-3-methoxypiperidin-1-yl)ethylamino)methyl)benzoate] | > 25000 nM | – |
| > 500 nM | COc1cc(N)c(Cl)cc1C(=O)N[C@@H]1CCN(CCNC(=O)c2ccc(C(=O)O)cc2)C[C@@H]1OC [Compound 33, 4-(2-((3S,4R)-4-(4-amino-5-chloro-2-methoxybenzamido)-3-methoxypiperidin-1-yl)ethylcarbamoyl)benzoic acid] | > 25000 nM | – |
| < 50 nM | COc1cc(N)c(Cl)cc1C(=O)N[C@@H]1CCN(CCNC(=O)c2ccc(C(=O)OC3CCNCC3)cc2)C[C@@H]1OC [Compound 34, piperidin-4-yl 4-(2-((3S,4R)-4-(4-amino-5-chloro-2-methoxybenzamido)-3-methoxypiperidin-1-yl)ethylcarbamoyl)benzoate] | – | – |
| > 500 nM | COc1cc(N)c(Cl)cc1C(=O)N[C@@H]1CCN(CC(=O)Nc2ccc(CC(=O)O)cc2)C[C@@H]1OC [Compound 45, 2-(4-(2-((3S,4R)-4-(4-amino-5-chloro-2-methoxybenzamido)-3-methoxypiperidin-1-yl)acetamido)phenyl)acetic acid] | > 25000 nM | – |
| < 50 nM | CCOC(=O)Cc1ccc(NC(=O)CN2CC[C@@H](NC(=O)c3cc(Cl)c(N)cc3OC)[C@@H](OC)C2)cc1 [Compound 46, ethyl 2-(4-(2-((3S,4R)-4-(4-amino-5-chloro-2-methoxybenzamido)-3-methoxypiperidin-1-yl)acetamido)phenyl)acetate] | – | – |
| < 50 nM | COc1cc(N)c(Cl)cc1C(=O)N[C@@H]1CCN(CC(=O)Nc2ccc(CC(=O)OC3CCN(C)CC3)cc2)C[C@@H]1OC [Compound 47, 1-methylpiperidin-4-yl 2-(4-(2-((3S,4R)-4-(4-amino-5-chloro-2-methoxybenzamido)-3-methoxypiperidin-1-yl)acetamido)phenyl)acetate] | > 25000 nM | – |
| < 50 nM | COc1cc(N)c(Cl)cc1C(=O)N[C@@H]1CCN(CC(=O)Nc2ccc(CC(=O)OCCCO)cc2)C[C@@H]1OC [Compound 48, 3-hydroxypropyl 2-(4-(2-((3S,4R)-4-(4-amino-5-chloro-2-methoxybenzamido)-3-methoxypiperidin-1-yl)acetamido)phenyl)acetate] | 10000 to 25000 nM | – |
| < 50 nM | COc1cc(N)c(Cl)cc1C(=O)N[C@@H]1CCN(CC(=O)Nc2ccc(O)cc2)C[C@@H]1OC [Compound 59, 4-amino-5-chloro-N-((3S,4R)-1-(2-(4-hydroxyphenylamino)-2-oxoethyl)-3-methoxypiperidin-4-yl)-2-methoxybenzamide] | – | – |
| < 50 nM | COc1cc(N)c(Cl)cc1C(=O)N[C@@H]1CCN(CC(=O)Nc2ccc(OC(C)=O)cc2)C[C@@H]1OC [Compound 60, 4-(2-((3S,4R)-4-(4-amino-5-chloro-2-methoxybenzamido)-3-methoxypiperidin-1-yl)acetamido)phenyl acetate] | – | – |
| > 500 nM | COc1cc(N)c(Cl)cc1C(=O)N[C@@H]1CCN(CCCc2ccc(C(=O)O)cc2)C[C@@H]1OC [Compound 66, 4-(3-((3S,4R)-4-(4-amino-5-chloro-2-methoxybenzamido)-3-methoxypiperidin-1-yl)propyl)benzoic acid] | > 25000 nM | – |
| < 50 nM | COc1cc(N)c(Cl)cc1C(=O)N[C@@H]1CCN(CCCc2ccc(C(=O)OCCN3CCOCC3)cc2)C[C@@H]1OC [Compound 67, 2-morpholinoethyl 4-(3-((3S,4R)-4-(4-amino-5-chloro-2-methoxybenzamido)-3-methoxypiperidin-1-yl)propyl)benzoate] | – | – |
| < 50 nM | COc1cc(N)c(Cl)cc1C(=O)N[C@@H]1CCN(CCCc2ccc(C(=O)OCCN3CCCC3)cc2)C[C@@H]1OC [Compound 68, 2-(pyrrolidin-1-yl)ethyl 4-(3-((3S,4R)-4-(4-amino-5-chloro-2-methoxybenzamido)-3-methoxypiperidin-1-yl)propyl)benzoate] | – | – |
| < 50 nM | COc1cc(N)c(Cl)cc1C(=O)N[C@@H]1CCN(CCCc2ccc(C(=O)OC3CCN(C)CC3)cc2)C[C@@H]1OC [Compound 69, 1-methylpiperidin-4-yl 4-(3-((3S,4R)-4-(4-amino-5-chloro-2-methoxybenzamido)-3-methoxypiperidin-1-yl)propyl)benzoate] | – | – |
| < 50 nM | COc1cc(N)c(Cl)cc1C(=O)N[C@@H]1CCN(CC(=O)Nc2ccc(C(=O)OCCO)cc2)C[C@@H]1OC [Compound 93, 2-hydroxyethyl 4-(2-((3S,4R)-4-(4-amino-5-chloro-2-methoxybenzamido)-3-methoxypiperidin-1-yl)acetamido)benzoate] | > 25000 nM | – |
| < 50 nM | COc1cc(N)c(Cl)cc1C(=O)N[C@@H]1CCN(CC(=O)Nc2ccc(C(=O)OCC(N)=O)cc2)C[C@@H]1OC [Compound 94, 2-amino-2-oxoethyl 4-(2-((3S,4R)-4-(4-amino-5-chloro-2-methoxybenzamido)-3-methoxypiperidin-1-yl)acetamido)benzoate] | 5000 to 10000 nM | – |
| < 50 nM | COc1cc(N)c(Cl)cc1C(=O)N[C@@H]1CCN(CC(=O)Nc2ccc(C(=O)OCCN3CCNCC3)cc2)C[C@@H]1OC [Compound 95, 2-(piperazin-1-yl)ethyl 4-(2-((3S,4R)-4-(4-amino-5-chloro-2-methoxybenzamido)-3-methoxypiperidin-1-yl)acetamido)benzoate] | – | – |
| – | COc1cc(N)c(Cl)cc1C(=O)NC1CCN(CCCOc2ccc(F)cc2)CC1OC (stereo not shown) [cisapride] | – | part of dose metabolized by oxidative N-dealkylation or aromatic hydroxylation [2]: More than 90%; deaths reported [3]: 80; serious cardiac arrhythmias reportedly associated [3]: at least 341 |

| Structure (SMILES) | Ki (5-HT4 receptor) | IC50 [1] | further results |
| --- | --- | --- | --- |
| COc1cc(N)c(Cl)cc1C(=O)N[C@@H]1CCN(CC(=O)Nc2ccc(CC(=O)OC3CN4CCC3CC4)cc2)C[C@@H]1OC (stereo partly drawn) [Compound 49, quinuclidin-3-yl 2-(4-(2-((3S,4R)-4-(4-amino-5-chloro-2-methoxybenzamido)-3-methoxypiperidin-1-yl)acetamido)phenyl)acetate] | < 50 nM | – | – |
